Data published in patent US9593305B2, “Differentiation of pluripotent stem cells” (Janssen Biotech, Inc., priority 2008, dated 2017).

Test system: H1 human embryonic stem cells
Experiment: Analog screening with GDF-8 and growth factor/agonist pool (Example 8, Tables 7 and 8)
Type: cell-based
Design: Cell Number, % of positive control / Sox17 Expression, % of positive control: tested at 2.5 µM
Details: for outcome in analog screening of hits from primary screening: 2.5 μM with GDF-8 and growth factor/agonist pool
Procedure, shortened: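 H1 hESC clusters, washed free of growth factors, fed on alternate days over 4 days with DMEM:F12, 0.5% FCS, 2.5 μM compound, 25 ng/ml GDF-8 plus a 50 ng/ml growth-factor pool. Fixed cells immunostained for SOX17 and imaged; total SOX17 intensity normalised to positive control.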

[1] = EGF, FGF, PDGF-A, VEGF, PDGF-D, muscimol, GDF8
[2] = Plate 2, compound + EGF, FGF, PDGF-A, VEGF, PDGF-D, muscimol, GDF8
[3] = Plate 2, compound + EGF, FGF, PDGF-A, VEGF, PDGF-D, muscimol, GDF8, positive control Activin A/Wnt3a
[4] = Plate 1, compound + EGF, FGF, PDGF-A, VEGF, PDGF-D, muscimol, GDF8
[5] = Plate 1, compound + EGF, FGF, PDGF-A, VEGF, PDGF-D, muscimol, GDF8, positive control Activin A/Wnt3a
[6] = Table 8: hits with greater than 25% activity of the positive control, with GDF-8 and growth factors/agonists

Compound | Cell Number, % of positive control [1] | Cell Number, Average Total Cell Number [1] | Sox17 Expression, % of positive control [1] | Sox17 Expression, Average Total Intensity [1] | Cell Number, Average Total Cell Number [2] | Sox17 Expression, Average Total Intensity [2] | Cell Number, % of positive control [3] | Sox17 Expression, % of positive control [3] | Cell Number, Average Total Cell Number [4] | Sox17 Expression, Average Total Intensity [4] | Cell Number, % of positive control [5] | Sox17 Expression, % of positive control [5] | Cell Number, % of positive control [6] | Sox17 Expression, % of positive control [6] | Sox17 Expression, Average Total Intensity [6] | outcome in analog screening of hits from primary screening
O=C1CCN2CCN(CC2)Cc2cccc(c2)Nc2ncnc(n2)-c2ccnc(c2)NCCCN1 [Compound 13, 1,8,10,12,17,19,23,27,33-Nonaazapentacyclo[25.2.2.1˜3,7˜0.1˜9.13˜1˜14.18˜]tetratriaconta-3(34), 4,6,9(33), 10,12,14(32), 15,17-nonaen-24-one] | 52.6% | 7045 | 28.8% | 7.22E+07 | 9123 | 1.13E+08 | 57.7 % of positive control | 39.7 % of positive control | – | – | – | – | – | – | – | –
CCN1CC(=O)NCCCc2cccc(c2)-c2ncnc(n2)Nc2cccc(c2)C1 [Compound 15, 14-Ethyl-3,5,7,14,17,27-hexaazatetracyclo[19.3.1.1˜2,6˜1-8.12˜]heptacosa-1(25), 2(27), 3,5,8(26), 9,11,21,23-nonaen-16-one] | 45.8% | 7234 | 27.8% | 7.95E+07 | – | – | – | – | 8448 | 8.64E+07 | 63.1 % of positive control | 34.5 % of positive control | – | – | – | –
C=CCN1CC(=O)NCCCc2cncc(c2)-c2ncnc(n2)Nc2cccc(c2)C1 [Compound 40, 14-Prop-2-en-1-yl-3,5,7,14,17,23,27-heptaazatetracyclo[19.3.1.1˜2.6˜0.1˜8,12˜]heptacosa-1(25), 2(27), 3,5,8(26), 9,11,21,23-nonaen-16-one] | – | – | – | – | 4049 | 8.23E+07 | 25.6 % of positive control | 28.8 % of positive control | – | – | – | – | 25.6 % of positive control | 28.8 % of positive control | 8.23E+07 | –
O=C1CCN2CCN(CC2)Cc2cc(Cl)cc(c2)Nc2ncnc(n2)-c2cncc(c2)CCCN1 [Compound 34, 5-Chloro-1,8,10,12,16,22,26,32-octaazapentacyclo[24.2.2.1˜3.7˜0.1˜9,13˜0.1˜14.18˜]tritriaconta-3(33), 4,6,9(32), 10,12,14(31), 15,17-nonaen-23-one] | – | – | – | – | 8907 | 9.99E+07 | 56.3 % of positive control | 35.0 % of positive control | – | – | – | – | 56.3 % of positive control | 35.0 % of positive control | 9.99E+07 | repeated as hits
O=C1NCCCc2cncc(c2)-c2ncnc(n2)Nc2cccc(c2)CN2CCC[C@@H]12 [Compound 18, (18S)-3,5,7,14,20,26,30-Heptaazapentacyclo[22.3.1.1˜2,6˜1˜8,12˜0.0˜14,18˜]triaconta-1(28), 2(30), 3,5,8(29), 9,11,24,26-nonaen-19-one] | 55.3% | 8742 | 35.4% | 1.01E+08 | – | – | – | – | 13037 | 1.63E+08 | 97.3 % of positive control | 65.2 % of positive control | – | – | – | –
CN1CCCC(=O)NCCCc2cncc(c2)-c2ncnc(n2)Nc2cccc(c2)C1 [Compound 20, 14-Methyl-3,5,7,14,19,25,29-heptaazatetracyclo[21.3.1.1˜2,6˜0.1˜8,12˜]nonacosa-1(27), 2(29), 3,5,8(28), 9,11,23,25-nonaen-18-one] | 70.4% | 9434 | 59.1% | 1.48E+08 | 7346 | 8.90E+07 | 46.5 % of positive control | 31.2 % of positive control | 9434 | 1.48E+08 | 70.4 % of positive control | 59.1 % of positive control | – | – | – | –
CN1CCC(=O)NCCCc2cncc(c2)-c2ncnc(n2)Nc2cccc(c2)C1 [Compound 19, 14-Methyl-3,5,7,14,18,24,28-heptaazatetracyclo[20.3.1.1˜2,6˜0.1˜8,12˜]octacosa-1(26), 2(28), 3,5,8(27), 9,11,22,24-nonaen-17-one] | 58.2% | 7799 | 27.2% | 6.82E+07 | 8425 | 1.19E+08 | 53.3 % of positive control | 41.6 % of positive control | – | – | – | – | – | – | – | –
CCN1CC(=O)NCCCc2cncc(c2)-c2ncnc(n2)Nc2cc(Cl)cc(c2)C1 [Compound 35, 10-Chloro-14-ethyl-3,5,7,14,17,23,27-heptaazatetracyclo[19.3.1.1˜2,6˜0.1˜8,12]Theptacosa-1(25), 2(27), 3,5,8(26), 9,11,21,23-nonaen-16-one] | – | – | – | – | 10461 | 1.59E+08 | 66.2 % of positive control | 55.7 % of positive control | – | – | – | – | 66.2 % of positive control | 55.7 % of positive control | 1.59E+08 | repeated as hits
O=C1NCCCc2cncc(c2)-c2ncnc(n2)Nc2cccc(c2)CN2CCCC1C2 (stereo not shown) [Compound 17, 3,5,7,14,20,26,31-Heptaazapentacyclo[22.3.1.1-2,6˜1˜8,12˜1˜14,18˜]hentriaconta-1(28), 2(31), 3,5,8(30), 9,11,24,26-nonaen-19-one] | 59.6% | 7988 | 45.0% | 1.13E+08 | – | – | – | – | – | – | – | – | – | – | – | –
CCN1CC(=O)NCCCc2cc(ccc2F)-c2ncnc(n2)Nc2cc(Cl)cc(c2)C1 [Compound 25, 10-Chloro-14-ethyl-22-fluoro-3,5,7,14,17,27-hexaazatetracyclo[19.3.1.1˜2,6˜0.1˜8,12˜]heptacosa-1(25), 2(27), 3,5,8(26), 9,11,21,23-nonaen-16-one] | – | – | – | – | 6571 | 7.60E+07 | 41.6 % of positive control | 26.6 % of positive control | – | – | – | – | 41.6 % of positive control | 26.6 % of positive control | 7.60E+07 | –
O=C1CCN2CCN(CC2)Cc2cccc(c2)Nc2ncnc(n2)-c2cncc(c2)CCCN1 [Compound 23, 1,8,10,12,16,22,26,32-Octaazapentacyclo[24.2.2.1-3,7˜0.1˜9,13˜0.1˜14,18˜]tritriaconta-3(33), 4,6,9(32), 10,12,14(31), 15,17-nonaen-23-one] | – | – | – | – | – | – | – | – | 12165 | 2.15E+08 | 90.8 % of positive control | 86.0 % of positive control | 90.8 % of positive control | 86.0 % of positive control | 2.15E+08 | –
CN1CCC(=O)NCCCNc2cccc(c2)-c2ncnc(n2)Nc2cccc(c2)C1 [Compound 21, 14-Methyl-3,5,7,14,18,22,29-heptaazatetracyclo[21.3.1.1˜2,6˜0.1˜8,12˜]nonacosa-1(27), 2(29), 3,5,8(28), 9,11,23,25-nonaen-17-one] | – | – | – | – | – | – | – | – | 12640 | 1.65E+08 | 94.4 % of positive control | 65.9 % of positive control | 94.4 % of positive control | 65.9 % of positive control | 1.65E+08 | –
CCN1CC(=O)NCCCc2cc(ccn2)-c2ncnc(n2)Nc2cc(Cl)cc(c2)C1 [Compound 14, 10-Chloro-14-ethyl-3,5,7,14,17,22,27-heptaazatetracyclo[19.3.1.1˜2,6˜1˜8,12˜]heptacosa-1(25), 2(27), 3,5,8(26), 9,11,21,23-nonaen-16-one] | 53.5% | 8464 | 29.1% | 8.33E+07 | – | – | – | – | 9344 | 1.23E+08 | 69.8 % of positive control | 49.0 % of positive control | – | – | – | –
